According to patent EP0117811A2, “Fungicidal pharmaceutical compositions for oral administration” (SANOFI S.A., priority 1983, dated 1984):
Read-outs that look alike come from different tables or passages of the source.

Experiment: Bioavailability in the baboon: plasma levels of omoconazole after oral administration (microbiological agar diffusion assay, test germ Candida macedoniensis)
Assay type: in vivo, babouin
Conditions: fasted baboons
Description: La biodisponibilité des compositions pharmaceutiques selon l'invention a été étudiée chez le babouin en comparaison avec le produit (I) seul.
Les études ont été conduites à la dose de 100 mg/kg d'omoconazole et les produits ont été administrés aux singes à jeun par sonde gastrique. […] Les dosages des taux plasmatiques d'omoconazole ont été effectués par une méthode microbiologique réalisée à l'aide d'une technique de diffusion en milieu gélosé avec comme germe test Candida macedoniensis.
Des essais ont été effectués selon la même méthode, avec les formulations des exemples 4, 5, 6, 9 et 14. Pour les 3 premiers cas, les formulations ont été administrées telles quelles (solution) tandis que les compositions des exemples 9 et 14 et l'omoconazole ont été administrés dans des gélules No. 2. […]

C/C(=C(/OCCOc1ccc(Cl)cc1)c1ccc(Cl)cc1Cl)n1ccnc1 [Omoconazole]
AUC (baboon, 100 mg/kg omoconazole oral, mean of 4 animals, Ex 4, 5, 6 given as such, Ex 9, 14 and omoconazole in No. 2 capsules, read-out: Aire sous la courbe): 11600 ng·h/mL
Cmax (baboon, 100 mg/kg omoconazole oral, mean of 4 animals, Ex 4, 5, 6 given as such, Ex 9, 14 and omoconazole in No. 2 capsules, read-out: Concentration maximale): 1350 ng/mL
Tmax (baboon, 100 mg/kg omoconazole oral, mean of 4 animals, Ex 4, 5, 6 given as such, Ex 9, 14 and omoconazole in No. 2 capsules, read-out: Temps de C. Max.): 5.5 h
AUC at 24 h (baboon, po, 100 mg/kg omoconazole by gastric tube, mean of 3 animals, sampling up to 24 h, read-out: aire sous la courbe): 11500 ng·h/mL
Cmax (100 mg/kg omoconazole by gastric tube, mean of 3 animals): 1,35 µg/ml
